Measured values as given in patent US9346741B2, “Polyamine transport selective therapeutic agents with enhanced stability” (University of Central Florida Research Foundation, Inc., priority 2012, dated 2016).
Entries after “also recorded” stand apart in the source; their conditions may differ. Like-named read-outs stand apart in the source and are kept apart here.

Key:
[1] = tested on: MALME-3M cells; test: Cytotoxicity IC50 determination (MTS) in MALME-3M cells; assay type: cell-based, human
Procedure: Armed with this insight, compounds 5a-8b were evaluated in the MALME-3M (melanoma) cell line and its non-cancerous counterpart MALME-3 obtained originally from the same patient. These matched cell lines provided a method to assess PTS selectivity for the cancer line (MALME-3M) over the non-cancerous cell line (MALME-3). […]
(§1) CHO and CHO-MG cells were grown in RPMI 1640 medium supplemented with 10% fetal calf serum and 1% penicillin/streptomycin. Note: the media must contain L-proline (2 μg/mL) for proper growth of the CHO-MG cells. MALME-3M cells were grown in RPMI 1640 medium supplemented with 10% FBS and 1% penicillin/streptomycin. All cells were grown at 37° C. under a humidified 5% CO2 atmosphere Aminoguanidine (1 mM) was added to the growth medium to prevent oxidation of the drugs by the enzyme (bovine serum amine oxidase) present in calf serum. Cells in early to mid-log phase were used.
(§2) Cell growth was assayed in sterile 96-well microtiter plates (Costar 3599, Corning, N.Y., USA). CHO and CHO-MG* cells were plated at 10,000 cells/mL. MALME-3M and MALME-3 cells were plated at 5,000 cells/mL. Drug solutions (10 μL per well) of appropriate concentration were added after an overnight incubation for each CHO cell line (90 μL). 48 h MALME-3M experiments were conducted using 10% Nu-Serum IV, and 96 h MALME-3M and MALME-3 experiments were conducted using 10% FBS. After exposure to the drug for 48 h (CHO, CHO-MG*, and MALME-3M) or 96 h (MALME-3M and MALME-3), cell growth was determined by measuring formazan
(§3) formation from 3-(4,5-dimethylthiazol-2-yl)-5-(3-carboxymethoxyphenyl)-2-(4-sulphenyl)-2H-tetrazolium) inner salt (MTS) using a SynergyMx Biotek microplate reader for absorbance ([…]) measurements.^24

[2] = tested on: MALME-3 cells; test: Cytotoxicity IC50 determination (MTS) in MALME-3 cells; assay type: cell-based, human; details: for IC50: 96 h at 37° C., 1 mM AG, 10% FBS
Procedure: Armed with this insight, compounds 5a-8b were evaluated in the MALME-3M (melanoma) cell line and its non-cancerous counterpart MALME-3 obtained originally from the same patient. These matched cell lines provided a method to assess PTS selectivity for the cancer line (MALME-3M) over the non-cancerous cell line (MALME-3).
as §1, §2, §3

[3] = tested on: CHO cells; test: in vitro; assay type: cell-based; details: for IC50: 48 h at 37° C.
Source text: (§4) CHO cells were chosen along with a mutant cell line (CHO-MG*) to comment on how the synthetic conjugates gain access to the cells.^2c-e, 6 As discussed earlier, the CHO-MG cell line is polyamine-transport deficient and represents a model for alternative modes of entry (other than PTS) including passive diffusion or use of another transporter. The CHO cell line on the other hand, represents cells with high polyamine transport activity.^7, 10c A comparison of toxicity in these two CHO cell lines allowed for a screen that would detect selective use of the polyamine transporter. This is seen where high utilization of the PTS would be very toxic to CHO cells, however, there would not be the same level of toxicity found in CHO-MG cells.^2c-e, 6 Ultimately, a CHO-MG/CHO IC50 can be determined where a high ratio would be achieved for highly PTS selective compounds.
(§5) CHO and CHO-MG cells were grown in RPMI 1640 medium supplemented with 10% fetal calf serum and 1% penicillin/streptomycin. Note: the media must contain L-proline (2 μg/mL) for proper growth of the CHO-MG cells. MALME-3M cells were grown in RPMI 1640 medium supplemented with 10% FBS and 1% penicillin/streptomycin. […] Cells in early to mid-log phase were used.
as §2, §3

[4] = tested on: polyamine transport system (PTS), CHO-MG* vs CHO cells; test: CHO-MG*/CHO IC50 ratio, a measure of PTS selectivity; assay type: cell-based, Chinese hamster; details: 48 h; for IC50 ratio w/AG (CHO-MG*/CHO): with 1 mM AG; for IC50 ratio w/o AG (CHO-MG*/CHO): without AG
Source text: Compounds with high CHO-MG/CHO IC50 ratios are considered PTS selective.
as §4

[5] = tested on: CHO-MG* cells; test: Cytotoxicity IC50 determination (MTS) in polyamine-transport-deficient CHO-MG* cells; assay type: cell-based, Chinese hamster; details: 48 h at 37° C.
Source text: as §4, §5, §2, §3

[6] = tested on: MALME-3M (melanoma) vs MALME-3 (normal) cells; test: MALME-3/MALME-3M IC50 ratio, a measure of selectivity; assay type: cell-based, human; details: 96 h; 1 mM AG
Source text: These matched cell lines provided a method to assess PTS selectivity for the cancer line (MALME-3M) over the non-cancerous cell line (MALME-3).

[7] = tested on: polyamine transport system (PTS) in L1210 cells; details: cited from earlier work
[8] = tested on: 60 human cancer cell lines; test: NCI 60 cell-line screen; assay type: cell-based; details: 48 h; for effect on breast cancer cell lines in the NCI 60 cell-line screen / effect on melanoma cell lines in the NCI 60 cell-line screen: 10 μM
Procedure: Once compounds 6a-b, 7a-b, and 8a-8b were evaluated in CHO and CHO-MG*, these compounds were sent to the National Cancer institute (NCI) to conduct its 60 cell-line screen to determine if these compounds could also be potent anti-cancer agents for human cancer cell lines. […] As shown in FIGS. 2A-2C, dose response curves were generated based upon the 60 cell-line screen at different molar concentrations of each PTS targeting agent 6b, 7b, and 8b.
To generate FIGS. 2A-2C, the respective drug was dosed at 10 μM into each human cancer cell line and cell viability was assessed after a 48 h incubation at 37° C. in an environment of 5% CO2, 95% air and 100% relative humidity. A more descriptive methodology can be found at the NCI website: http://dtp.nci.nih.gov/branches/btb/ivclsp.html. Cell lines which gave bar graphs which extend to the right of the central line were more sensitive to the drug than cell lines which extended to the left of the center line.

[9] = tested on: 60 human cancer cell lines; test: NCI 60 cell-line screen; assay type: cell-based; details: 5-dose assay
[10] = 48 h at 37° C., 1 mM AG, 10% Nu-Serum IV, read-out: MALME-3M IC50 (μM) w/ AG
[11] = 48 h at 37° C., without AG, 10% Nu-Serum IV, read-out: MALME-3M IC50 (μM) w/o AG
[12] = 96 h at 37° C., 1 mM AG, 10% FBS, read-out: MALME-3M IC50
[13] = 1 mM AG 24 h prior to drug addition, read-out: CHO IC50 (μM) w/AG
[14] = without AG, read-out: CHO IC50 (μM) w/o AG
[15] = 1 mM AG 24 h prior to drug addition, read-out: CHO-MG* IC50 (μM) w/AG
[16] = without AG, read-out: CHO-MG* IC50 (μM) w/o AG
[17] = Homo sapiens, Malme-3M, 48 h at 37° C., 1 mM AG, 10% Nu-Serum IV, read-out: MALME-3M IC50 (μM) w/ AG
[18] = Homo sapiens, Malme-3M, 48 h at 37° C., without AG, 10% Nu-Serum IV, read-out: MALME-3M IC50 (μM) w/o AG
[19] = Homo sapiens, Malme-3M, 96 h at 37° C., 1 mM AG, 10% FBS, read-out: MALME-3M IC50
[20] = Cricetulus griseus, CHO, 1 mM AG 24 h prior to drug addition, read-out: CHO IC50 (μM) w/AG
[21] = Cricetulus griseus, CHO, without AG, read-out: CHO IC50 (μM) w/o AG
[22] = Cricetulus griseus, CHO-MG, 1 mM AG 24 h prior to drug addition, read-out: CHO-MG* IC50 (μM) w/AG
[23] = Cricetulus griseus, CHO-MG, without AG, read-out: CHO-MG* IC50 (μM) w/o AG

Row | SMILES | IC50 [1, 10] [µM] | IC50 [1, 11] [µM] | IC50 [1, 12] [µM] | IC50 [3, 13] [µM] | IC50 [3, 14] [µM] | IC50 [2] [nM] | IC50 ratio w/AG (CHO-MG*/CHO) [4] | IC50 ratio w/o AG (CHO-MG*/CHO) [4] | IC50 [5, 15] [µM] | IC50 [5, 16] [µM] | MALME-3/MALME-3M IC50 ratio [6] | Ki ([7]; read-out: Ki in L1210 cells) [nM] | further results
1 | N=C(N)NN [AG, aminoguanidine, reference compound] |  |  |  |  |  |  |  |  |  |  |  |  | toxicity of 1 mM AG in MALME-3M cells ([1]; 1 mM): ^b1 mM AG was determined to be non-toxic and incubated with MALME-3M and MALME-3 cells for 24 h prior to drug addition; also recorded: ^b1 mM AG was determined to be non-toxic and incubated with MALME-3M cells for 24 h prior to drug addition; toxicity of 1 mM AG in MALME-3 cells ([2]; 1 mM): ^b1 mM AG was determined to be non-toxic and incubated with MALME-3M and MALME-3 cells for 24 h prior to drug addition.
2 | CNCCCCNCCCCNCc1c2ccccc2cc2ccccc12 [Compound 5b] | 0.6 | 0.62 | 0.45 | 2.8 | 2.1 | 620 | 3.8 | 5.4 | 10.7 | 11.3 | 1.4 |  | 
3 | NCCCCNCCCCNCc1c2ccccc2c(CNCCCCNCCCCN)c2ccccc12 [Compound 6a] | 0.088 | 0.29 | 0.017 | 0.028 | 4 | 690 | >3571 | 2.1 | > 100 | 8.4 | 41 | 390 | 
4 | CNCCCCNCCCCNCc1c2ccccc2c(CNCCCCNCCCCNC)c2ccccc12 [Compound 6b, N1,N1′-(Anthracene-9,10-diylbis(methylene))bis(N4-(4-(methylamino)butyl)butane-1,4-diamine)] |  |  |  |  |  |  | >1204 | >1190 |  |  | 16 |  | effect on breast cancer cell lines in the NCI 60 cell-line screen [8]: exhibited an anti-proliferation effect in breast cancer cell lines, particularly the T-47D cell line; effect on melanoma cell lines in the NCI 60 cell-line screen [8]: inhibited the proliferation of melanoma cell lines, particularly the MALME-3M cell line; NCI 60 cell-line screen, overall result ([8]; no AG): cell-targeting specificity, especially for the MALME-3M cell line; IC50 [1, 17]: 0.13 µM; IC50 [1, 18]: 0.16 µM; IC50 [1, 19]: 0.062 µM; IC50 [3, 20]: 0.083 µM; IC50 [3, 21]: 0.084 µM; IC50 ([2]; Homo sapiens, MALME-3): 1000 nM; NCI 5-dose assay, MALME-3M cell line [9]: dose dependent response; IC50 [5, 22]: > 100 µM; IC50 [5, 23]: > 100 µM
5 | NCCCCNCCCCNCc1ccc(CNCCCCNCCCCN)c2ccccc12 [Compound 7a] | 0.043 | 0.43 | 0.018 | 0.022 | 5.5 | 1270 | >4545 | 9.5 | > 100 | 52.1 | 71 | 170 | 
6 | CNCCCCNCCCCNCc1ccc(CNCCCCNCCCCNC)c2ccccc12 [Compound 7b, N1,N1′-(Naphthalene-1,4-diylbis(methylene))bis(N4-(4-(methylamino)butyl)butane-1,4-diamine)] |  |  |  |  |  |  | >2272 | >2564 |  |  | 59 |  | effect on breast cancer cell lines in the NCI 60 cell-line screen [8]: exhibited an anti-proliferation effect in breast cancer cell lines, particularly the T-47D cell line; effect on melanoma cell lines in the NCI 60 cell-line screen [8]: inhibited the proliferation of melanoma cell lines, particularly the MALME-3M cell line; IC50 [1, 17]: 0.1 µM; IC50 [1, 18]: 0.17 µM; IC50 [1, 19]: 0.014 µM; IC50 [3, 20]: 0.044 µM; IC50 [3, 21]: 0.039 µM; IC50 ([2]; Homo sapiens, MALME-3): 820 nM; NCI 5-dose assay, MALME-3M cell line [9]: dose dependent response; IC50 [5, 22]: > 100 µM; IC50 [5, 23]: > 100 µM
7 | NCCCCNCCCCNCc1cc(CNCCCCNCCCCN)cc(CNCCCCNCCCCN)c1 [Compound 32, reference compound] |  |  |  |  |  |  | 1 |  |  |  |  |  | fold less toxic than 34a in the CHO cell line ([3]; CHO, versus 34a): > 3500 fold; IC50 ([3]; Cricetulus griseus, CHO, Table 4, 1 mM AG 24 h prior to drug addition, read-out: CHO IC50): > 100 µM; MTD (μM) in CHO (maximum tolerated dose) ([3]; hamster): 80 µM; Ki ([7]; unit inferred, read-out: Ki values in L1210 cells): 520 ± 110 nM; IC50 ([5]; Cricetulus griseus, CHO-MG, Table 4, 1 mM AG 24 h prior to drug addition, read-out: CHO-MG* IC50): > 100 µM
8 | NCCCCNCCCN [Spermidine, spermidine, reference compound] |  |  |  |  |  |  |  |  |  |  |  | 2460 | non-toxic concentration in MALME-3M ([1]; spermidine alone): up to 100 μM; non-toxic concentration in MALME-3 ([2]; spermidine alone): up to 100 μM
